# Measured values reported in US20250236901A1, “METHOD OF DETECTING A MICROORGANISM HAVING HIPPURICASE ACTIVITY” (BIOSYNTH AG, priority 2022, published 2025).
# How the values were obtained:
# Format in all cases: cell-based
# [1] = system: catalase-positive samples (Campylobacter); experiment: Catalase control experiment: chromogenic reaction of p-hydroxybenzoic acid with 4-AAP/HRP/H2O2 in presence of cells; conditions: 1 mM 4-HBA, 0.5 mM 4-AAP, 4.5 U/mL HRP, 1 mM H2O2; OD600 0.4 to 0.5; FIG. 2B, FIG. 9
# Protocol: In a catalase control experiment, biomass of colonies was suspended in sterile phosphate buffer (100 mM, pH 7.4) and the optical density OD was determined and then serially diluted with the same buffer to an OD600 of 0.4 to 0.5.
# One hundred to 150 μL of cell suspension were mixed with 50 to 100 μL of 100 mM phosphate puffer pH 7.4 and 50 μL of the prepared mixture (5×) 4-aminoantipyrine (4-AAP, Merck 06800, 2.5 mM), peroxidase (HRP, Merck 77332, 22.5 U/mL) and 4-hydroxybenzoic acid (4-HBA, Merck H20059, 5 mM, dissolved in 100 mM phosphate puffer pH 7.4) and 5 μL of 50 mM H2O2 were added. The absorbance at 505 nm was recorded with a plate reader (SpektraMax M5, Molecular Devices) at room temperature. Final concentrations for the assay are 1 mM 4-HBA, 0.5 mM 4-AAP, 4.5 U/mL HRP and 1 mM H2O2. (FIG. 2B)
# Two hundred μL of cell suspension were mixed with 20 μL of 100 mM phosphate puffer pH 7.4, 5 μL 50 mM and p-4-hydroxybenzoic acid (p-HBA, Merck H20059 dissolved in 100 mM phosphate puffer pH 7.4), 20 μL of mixture 4-aminoantipyridine (Merck 06800, 6.25 mM) and horseradish peroxidase (Merck 77332, 56.3 U/mL), followed by the addition of 5 μL of 50 mM H2O2. The absorbance at 505 nm was recorded with a plate reader (SpektraMax M5, Molecular Devices) at room temperature. Final concentrations for the assay are 1 mM p-4-HBA, 0.5 mM 4-AAP, 4.5 U/mL HRP and 1 mM H2O2. (FIG. 9)
# Eschericha coli = experiment: Detection of hippuricase activity with 4-HHA, 4-aminoantipyrine, HRP and H2O2; conditions: Example 1; OD600 0.9; 5, 10, 20 mM 4-HHA, 70 min 37° C.; 0.5 mM 4-AAP, 4.5 U/mL HRP, 2 mM H2O2
# Protocol: (§1) Campylobacter jejuni DSM 4688 (C. j., catalase positive), Eschericha coli (E. coli, catalase positive) and Campylobacter coli DSM 4689 (C. c., catalase positive), Streptococcus agalactiae ATCC®12386 (S. a., catalase negative) and Streptococcus pyogenes ATCC®19615 (S. p., catalase negative) were cultivated on Columbia Agar with sheep blood (Thermofischer PB5039A) at 37° C. for 48 h, both Campylobacter strains were cultivated under microaerophilic atmosphere (Oxoid, Campylgen CN0025A).
# (§2) Biomass of colonies were suspended in sterile phosphate buffer (100 mM, pH 7.4) and the optical density OD was determined and set to OD600 of 0.9.
# (§3) Two hundred μL of cell suspensions were mixed with 25 μL of 4-hydroxyhippuric acid (4-HHA, Bachem, 4005059) stock solution, prepared in 100 mM phosphate buffer pH adjusted to 7.4 in a microtiter plate (SpektraMax M5, Molecular Devices) and incubated for 70 minutes at 37° C. After incubation, 20 μL of a prepared mixture (12.5×) 4-aminoantipyrine (4-AAP, Merck 06800) and peroxidase (HRP, Merck 77332) and 5 μL of 100 mM H2O2 were added. The absorbance at 505 nm was recorded with a plate reader at room temperature. Final concentrations for the assay were 5 mM, 10 mM and 20 mM 4-HHA, 0.5 mM 4-AAP, 4.5 U/mL HRP and 2 mM H2O2.
# [2] = system: Streptococcus agalactiae ATCC®12386; experiment: Detection of hippuricase activity with 4-HHA, 4-aminoantipyrine and oxidizing reagent; conditions: Example 6; OD600 0.5-0.6; 10 mM 4-HHA; HRP/H2O2, HRP/Glu/GOD or NaIO4
# Protocol: (§4) Streptococcus agalactiae ATCC®12386 and Streptococcus pyogenes ATCC®19615 were cultivated on Columbia Agar with sheep blood (Thermofischer PB5039A) at 37° C. for 48 h.
# (§5) Biomass of colonies were suspended in sterile 100 mM phosphate buffer pH 7.4 and the optical density OD600 was set to 0.5-0.6.
# (§6) Two hundred μL of cell suspensions were mixed with 25 μL of 100 mM 4-hydroxyhippuric acid (4-HHA, Bachem 4005059) prepared in 100 mM phosphate buffer pH adjusted to 7.4) in a microtiter plate and incubated for 80 min. at 37° C. After incubation, 20 μL of the prepared mixture (12.5×) 4-aminoantipyrine (4-AAP, Merck 06800) and horseradish peroxidase (HRP, Merck 77332), 5 μL of 100 mM H2O2 were added. The absorbance at 505 nm was recorded with a plate reader (SpektraMax M5, Molecular Devices) at room temperature and endpoint of absorbance at 505 nm was evaluated (FIG. 8A). Final concentrations for the assay were 10 mM 4-HHA, 0.5 mM 4-AAP, 4.5 U/mL HRP and 2 mM H2O2.
# (§7) Two hundred μL of cell suspension were mixed with 25 μL of 100 mM 4-hydroxyhippuric acid (4-HHA, Bachem 4005059, dissolved in 100 mM phosphate puffer pH 7.4) in microtiter plate and incubated for 1 h at 37° C. […] The absorbance at 505 nm was recorded with a plate reader and endpoint of absorbance at 505 nm was evaluated (FIG. 8B). […]
# [3] = system: Streptococcus pyogenes ATCC®19615; experiment: as above; conditions: Example 6; OD600 0.5-0.6; 10 mM 4-HHA; HRP/H2O2, HRP/Glu/GOD or NaIO4
# Protocol: as §4, §5, §6, §7
# [4] = system: Campylobacter jejuni DSM 4688; experiment: Detection of hippuricase activity with 4-HHA, 4-aminoantipyrine and oxidizing reagent (color / absorbance at 505 nm); conditions: for time to plateau of absorbance at 505 nm: HRP/H2O2
# Protocol: as §1, §2, §3
# (§8) Biomass of colonies were suspended in sterile 100 mM phosphate buffer pH 7.4 and the optical density OD600 was set to 0.9 and then serially diluted with the same buffer to an OD600 of 0.5, 0.2 and 0.1.
# as §6, with “1 h” for “80 min.”, “and” for “and horseradish”, “temperature.” for “temperature and endpoint of absorbance at 505 nm was evaluated (FIG. 8A).”
# (§9) Biomass of colonies were suspended in sterile phosphate buffer (100 mM, pH 7.4) and the optical density OD was set to 0.9 and then serially diluted with the same buffer to an OD600 of 0.5, 0.2 and 0.1.
# (§10) Two hundred μL of cell suspension were mixed with 25 μL of 100 mM 4-hydroxyhippuric acid (4-HHA, Bachem 4005059, dissolved in 100 mM phosphate puffer pH 7.4) in microtiter plate and incubated for 1 h at 37° C. After incubation, 10 μL of the prepared mixture (25×) 4-aminoantipyrine (4-AAP, Merck 06800) and peroxidase (HRP, Merck 77332), 10 μL of 250 mM glucose (Merck, G8270) and 5 μL of glucose oxidase (GOD, Merck G2133) 50 U/mL were added. The absorbance at 505 nm was recorded with a plate reader. Final concentration of 4-HHA was 10 mM, 4-AAP was 0.5 mM, HRP was 4.5 U/mL, glucose was 10 mM and GOD was 1 U/mL.
# (§11) Biomass of colonies were suspended, a) 0.2 mL sterile 100 mM phosphate buffer pH 7.4; b) 0.1 mL sterile water (as recommended in manual), c) 0.5 mL saline solution (as recommended in manual). To ensure a proper comparability, the optical density OD600 of all cell suspensions were set to 0.2. In method a) 25 μL of 100 mM 4-hydroxyhippuric acid (4-HHA, Bachem 4005059 prepared in 100 mM phosphate buffer pH adjusted to 7.4) was added to cell suspensions. In methods b) and c), Hippurate disks and Hippurate strips were dropped in cell suspensions as recommended in manual. To ensure a proper comparability, all samples were incubated at 37° C. for 1 h.
# After incubation, 10 μL of the prepared mixture (25×) 4-aminoantipyrine (4-AAP, Merck 06800) and peroxidase (HRP, Merck 77332), followed with 5 μL of 100 mM H2O2 were added in samples of method a). Final concentrations for the assay were 10 mM 4-HHA, 0.5 mM 4-AAP, 4.5 U/mL HRP and 2 mM H2O2.
# [5] = system: Campylobacter coli DSM 4689; experiment: as above
# Protocol: as §1, §2, §3, §8
# as §6, with “1 h” for “80 min.”, “and” for “and horseradish”, “temperature.” for “temperature and endpoint of absorbance at 505 nm was evaluated (FIG. 8A).”
# as §9, §10
# as §11, with “To ensure a proper comparability, all samples were incubated at 37° C. for 1 h.” left out
# [6] = Example 1, OD600 0.9, 5, 10, 20 mM 4-HHA, 70 min 37° C., 0.5 mM 4-AAP, 4.5 U/mL HRP, 2 mM H2O2
SMILES,time after which the chromogenic reaction stopped (absorbance at 505 nm) [1],color of sample (Eschericha coli),color of sample [2],color of sample [3],"time to plateau of absorbance at 505 nm ([4]; Example 1, FIG. 2A, OD600 0.9)","color of sample [4, 6]","time to plateau of absorbance at 505 nm ([4]; Example 2, FIG. 3, OD600 value of 0.1)","color of sample ([4]; Example 2, OD600 0.1 to 0.9, 10 mM 4-HHA 1 h 37° C., HRP/2 mM H2O2)","color of sample ([4]; Example 3, OD600 0.1 to 0.9, 10 mM 4-HHA 1 h 37° C., HRP, 10 mM glucose, 1 U/mL GOD)","color of sample ([4]; Example 4 method a), OD600 0.2, 10 mM 4-HHA 1 h 37° C., HRP/2 mM H2O2, few minutes at room temperature)","color of sample ([4]; Example 5, OD600 0.1 to 1.1, 10 mM 4-HHA 1 h 37° C., 2 mM 4-AAP, 2 mM NaIO4)","color of sample [5, 6]","color of sample ([5]; Example 2, all OD600 values 0.1 to 0.9, 10 mM 4-HHA 1 h 37° C., HRP/2 mM H2O2)","color of sample ([5]; Example 3, all OD600 values, 10 mM 4-HHA 1 h 37° C., HRP, 10 mM glucose, 1 U/mL GOD)","color of sample ([5]; Example 4 method a), OD600 0.2, 10 mM 4-HHA 1 h 37° C., HRP/2 mM H2O2)","color of sample ([5]; Example 5, all OD600 values, 10 mM 4-HHA 1 h 37° C., 2 mM 4-AAP, 2 mM NaIO4)"
O=C(O)c1ccc(O)cc1 [p-hydroxybenzoic acid],about 5 minutes,–,–,–,–,–,–,–,–,–,–,–,–,–,–,–
"O=C(O)CNC(=O)c1ccc(O)cc1 [4-HHA, p-hydroxyhippuric acid]",–,colorless or slightly yellowish,pink color,colorless or slightly yellowish,about 5 minutes,robust red to pink color,about 10 minutes,robust red to pink color,robust red to pink color,significant pink color,red to pink color,colorless or slightly yellowish,colorless or slightly yellowish,colorless or slightly yellowish,slightly yellowish,colorless or slightly yellowish
